# Key:
# Type in all cases: in vivo, mouse
# [1] = system: bleomycin-induced pulmonary fibrosis C57BL6J mice; assay: Bleomycin pulmonary fibrosis in mice (p16, IL6, Col1a1 mRNA, alveoli size), Example 24-1, Table 47; conditions: for Airspace enlargement: average size of alveoli, untreated 39.8 (±0.4); for Col1a1 mRNA / IL6 mRNA / p16 mRNA: lung, daily for 21 days, untreated 100%
# Description: Eight-week-old male C57BL6J mice (KRIBB Laboratory Animal Resource Center) were acclimated to the experimental environment for one week. They were then administered the anticancer drug bleomyxin via intratracheal inhalation at a concentration of 2.5 mg/kg, inducing aging for more than 10 days. The aging-induced mice were randomly assigned to experimental and control groups. […] LX-3002 was mixed in distilled water with 4% DMSO, 30% PEG300, 5% tween80 and administered orally at a concentration of 10 mg/kg daily for 21 days. LX-5701 was mixed in PBS and administered orally at a concentration of 360 mg/kg daily for 21 days. LX-6807 was mixed in saline and administered intraperitoneally at a concentration of 1 mg/kg daily for 21 days. The control group received only the solution in the same volume. After the end of drug administration, mice were sacrificed in the same manner as in Example 7-2 of WO2023-085787 A1, RNA was extracted from lung tissue, and qRT-PCR (quantitative real-time PCR) was performed and analyzed using the synthesized cDNA. […] The amount of mRNA after aging was calculated as 100%, and the results after treatment with the test compound were compared. Furthermore, paraffin sections were stained with hematoxylin/eosin (H/E), and the size of alveoli was measured under an optical microscope to assess the degree of lung function impairment due to pulmonary fibrosis.
# C57BL6-ApoE−/− mice = assay: Atherosclerosis in ApoE-/- mice (p16 mRNA, vascular plaque), Example 27, Table 51; conditions: high-fat diet ApoE−/− mice; for p16 mRNA: aortic arch of thoracic aorta, untreated 100%; for Plaque number: thoracic aorta, Oil Red O, untreated 21.4 (±5.7)
# Description: Fifteen-week-old male C57BL6-ApoE^−/−-mice (SLC) with atherosclerosis induced by a high-fat diet in the same manner as in Example 9-1 of WO2023-085787 A1 were acclimated to the experimental environment for one week and then randomly assigned to experimental and control groups. […] The control group was administered only the solution in the same volume. After the drug administration was terminated, the mice were sacrificed, and RNA was extracted from the aortic arch of the thoracic aorta using the same method as Example 7-2 of WO2023-085787 A1, and qRT-PCR was performed using the synthesized cDNA. In addition, the remaining part of the thoracic aorta was dissected, fixed flat in 4% paraformaldehyde at room temperature for 12 hours, and the vascular plaque was stained with Oil Red O using the same method as Example 23-5. […] The mRNA amount after aging was induced was calculated as 100% and compared with the mRNA amount of p16 after treatment with the test compound.
# [2] = system: naturally aged C57BL6J mice; assay: Kidney damage markers (urea, creatinine, Agtr1a mRNA) in naturally aged mice, Example 21-9, Table 24; conditions: untreated aged = 100%; for Agtr1a mRNA (%): qRT-PCR; for Creatinine (%) / Urea (%): serum
# Description: 22-month-old female C57BL6J mice (KRIBB Laboratory Animal Resource Center) were acclimated to the experimental environment for one week, after which the aged mice were randomly assigned to experimental and control groups. Eight-week-old, non-aged mice served as controls. LX-403 was mixed in a 10% ethanol solution of PEG400 and administered orally at a concentration of 25 mg/kg daily for 21 days, or administered to the skin, joints, or eyes at a concentration of 1 μM. LX-1801 was mixed in distilled water with 4% DMSO, 30% PEG300, and 5% Tween80 and administered to the skin, joints, or eyes at a concentration of 0.4 μM daily for 21 days. LX-2001 was mixed in PBS and administered to the skin, joints, or eyes at a concentration of […] daily for 21 days. LX-2002 was mixed in distilled water with 4% DMSO, 30% PEG300, and 5% Tween80 and administered to the skin, joints, or eyes at a concentration of 2 μM daily for 21 days. […] LX-2005 was mixed in distilled water with 4% DMSO, 30% PEG300, and 5% Tween80 and administered to the skin, joints, or eyes at a concentration of 90 μM daily for 21 days. LX-2007 was mixed in distilled water with 4% DMSO, 30% PEG300, and 5% Tween80 and administered to the skin, joints, or eyes at a concentration of 90 μM daily for 21 days. […] LX-3002 was mixed in distilled water with 4% DMSO, 30% PEG300, and 5% Tween80 and administered orally at a concentration of 10 mg/kg daily for 21 days. […] LX-5411 was mixed in 5% PBS and administered orally at a concentration of 10 mg/kg daily for 21 days or administered to the skin, joints, or eyes at a concentration of 3 μM. LX-5701 was mixed in PBS and administered orally at a concentration of 360 mg/kg daily for 21 days. LX-6807 was mixed in saline and administered intraperitoneally at a concentration of 1 mg/kg daily for 21 days. LX-2101 or LX-2102 was mixed in PBS solution with 5% DMSO and administered intraperitoneally at a concentration of 20 mg/kg or 10 mg/kg, respectively, daily for 21 days. The control group received only the solution in the same volume. After the end of drug administration, the methods described in each example below were performed.
# The levels of urea and creatinine, markers of kidney damage, in serum collected from mice were measured spectrophotometrically using kits (BioAssay Systems and Sigma). Additionally, the amount of Agtr1a mRNA, a marker of kidney damage, was measured using qRT-PCR as described in Example 7-2 of WO2023-085787 A1. […] The amount of each factor after aging was calculated as 100% and compared with the amount of each factor after test compound treatment.
Compound,Airspace enlargement [1],Col1a1 mRNA [1],IL6 mRNA [1],p16 mRNA [1],p16 mRNA (C57BL6-ApoE−/− mice),Plaque number (C57BL6-ApoE−/− mice),Agtr1a mRNA (%) [2],Creatinine (%) [2],Urea (%) [2]
"CCCC\C=C/C=C/C=C\CCCCCCCC(=O)O [LX-2707, Punicic acid]",35.4 (±1.8) μm,70 (±6.5) %,38 (±4.1) %,43 (±4.2) %,81 (±6.0) %,19.4 (±3.6),68 (±3.3) %,73 (±4.3) %,78 (±3.1) %
O=C1C2CCN(CC2)C1CNC(=O)C(F)(F)F (stereo not drawn) [LX-5701],30.1 (±2.7) μm,52 (±13.9) %,59 (±13.2) %,65 (±7.1) %,71 (±12.8) %,12.7 (±4.6),44 (±2.3) %,68 (±6.3) %,71 (±4.0) %
"Cc1cccc([C@H](C)c2cnc[nH]2)c1C [LX-6807, Dexmedetomidine]",33.8 (±3.6) μm,56 (±3.6) %,48 (±2.4) %,54 (±1.9) %,59 (±4.7) %,15.3 (±2.4),37 (±4.0) %,57 (±2.0) %,68 (±2.7) %
Tocofersolan [LX-3001],36.2 (±2.2) μm,64 (±3.9) %,51 (±3.6) %,65 (±3.8) %,78 (±7.2) %,17.5 (±4.2),61 (±2.0) %,75 (±3.2) %,81 (±5.4) %
